Measurements reported in patent US20250195521A1 (Revolution Medicines, Inc., priority 2020, published 2025).
Like-named read-outs stand apart in the source and are kept apart here.

Key:
[1] = system: NCI-H358 cells (K-Ras G12C); assay: CellTiter-Glo cell viability, NCI-H358; assay type: cell-based, human; details: K-Ras G12C, 5-day treatment, read-out: H358 Cell Viability IC50
Method in brief: (§1)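 Viability is read as luminescence after five days of compound exposure, with plates first equilibrated to room temperature for roughly 30 minutes. Each signal is expressed as a percentage of the mean DMSO control, and curves are fitted by four-parameter logistic regression.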

[2] = system: K-Ras G12C (NCI-H358 cells); assay: Potency assay: pERK in NCI-H358 cells; assay type: cell-based, human; details: NCI-H358 cells, 4 hours, read-out: pERK EC50 (H358 KRAS G12C)
Method in brief: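 Cells plated the day before were exposed for 4 h at 37° C, 5% CO2 to a 10-point, 3-fold DMSO dilution series (10 mM top stock), in duplicate. Phospho-ERK was read by AlphaLISA SureFire Ultra or by In-Cell Western with DRAQ5 DNA stain, and IC50 came from a 4-parameter sigmoidal fit.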

[3] = system: Capan-1 cells (K-Ras G12V); assay: CellTiter-Glo cell viability, Capan-1; assay type: cell-based, human; details: K-Ras G12V, 5-day treatment, read-out: Capan-1 Cell Viability IC50
Method in brief: as §1

[4] = target: K-Ras G12C(GMP-PNP) binding to BRAF RBD (Homo sapiens (Human), UniProt P01116+P62937, G12C); assay: Disruption of BRAF RBD interaction with K-Ras (FRET / MOA assay), K-Ras G12C; assay type: biochemical
Method in brief: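 TR-FRET readout: after 3 h compound incubation at 25 °C, anti-His Eu and anti-GST allophycocyanin (10 and 50 nM final) added for a further 1.5 h. Dilution series was 10-point, 3-fold, top 30 μM final. Ras–cyclophilin A ternary complex formation blocks the BRAF RBD interaction; IC50 derived from reduced FRET ratio relative to DMSO.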

K-Ras G12C(GMP-PNP) binding to BRAF RBD, sequence (P01116 other isoform, or with tags, fused parts or gaps G12C): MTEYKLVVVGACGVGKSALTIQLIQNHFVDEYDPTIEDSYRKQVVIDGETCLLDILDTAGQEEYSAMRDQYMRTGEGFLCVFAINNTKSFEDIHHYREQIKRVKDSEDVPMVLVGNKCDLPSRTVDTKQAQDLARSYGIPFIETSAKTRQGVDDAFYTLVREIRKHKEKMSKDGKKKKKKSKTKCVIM
K-Ras G12C(GMP-PNP) binding to BRAF RBD, sequence (P62937 whole entry): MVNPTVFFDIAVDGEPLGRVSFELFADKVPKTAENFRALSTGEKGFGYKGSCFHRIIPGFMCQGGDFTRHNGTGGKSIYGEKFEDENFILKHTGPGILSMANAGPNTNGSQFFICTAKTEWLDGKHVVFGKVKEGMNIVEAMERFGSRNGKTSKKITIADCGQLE

SMILES | IC50 ([1]; Homo sapiens, NCI-H358, 120 h) [µM] | EC50 ([2]; Homo sapiens) [µM] | IC50 ([3]; Homo sapiens, CAPAN-1, 120 h) [µM] | IC50 ([4]; KRAS G12C FRET IC50) [µM] | IC50 ([4]; read-out: KRAS G12C FRET IC50) [µM] | IC50 [1] [µM] | EC50 [2] [µM] | IC50 [3] [µM]
CCn1c(-c2cccnc2[C@H](C)OC)c2c3cc(ccc31)-c1csc(n1)C[C@H](NC(=O)[C@H](C(C)C)N(C)C(=O)C1COC1)C(=O)N1CCC[C@H](N1)C(=O)OCC(C)(C)C2 [Compound A245] | 0.1 to 1 | < 5 | 0.1 to 1 | < 0.01 | – | – | – | –
CCn1c(-c2cccnc2[C@H](C)OC)c2c3cc(ccc31)-c1csc(n1)C[C@H](NC(=O)[C@H](C(C)C)N(C)C(=O)N1C[C@@H](C)N(C)C[C@@H]1C)C(=O)N1CCC[C@H](N1)C(=O)OCC(C)(C)C2 [Compound A292] | 0.1 to 1 | < 5 | 0.1 to 1 | – | < 0.01 | – | – | –
CCn1c(-c2cccnc2[C@H](C)OC)c2c3cc(ccc31)-c1csc(n1)C[C@H](NC(=O)[C@H](C(C)C)N(C)C(=O)N1CC(N3CCC3)C1)C(=O)N1CCC[C@H](N1)C(=O)OCC(C)(C)C2 [Compound A295] | 0.01 to 0.1 | < 5 | 0.01 to 0.1 | – | 0.01 to 0.1 | – | – | –
CCn1c(-c2cccnc2[C@H](C)OC)c2c3cc(ccc31)-c1csc(n1)C[C@H](NC(=O)[C@H](C(C)C)N(C)C(=O)N1C[C@H](C)N(C)C[C@H]1C)C(=O)N1CCC[C@H](N1)C(=O)OCC(C)(C)C2 [Compound A300] | – | < 5 | 1 to 10 | – | < 0.01 | – | – | –
CCn1c(-c2cccnc2[C@H](C)OC)c2c3cc(ccc31)-c1csc(n1)C[C@H](NC(=O)[C@H](C(C)C)N1CCCN(C)C1=O)C(=O)N1CCC[C@H](N1)C(=O)OCC(C)(C)C2 [Compound A317] | 0.1 to 1 | < 5 | 1 to 10 | – | < 0.01 | – | – | –
CCn1c(-c2cccnc2[C@H](C)OC)c2c3cc(ccc31)-c1cc(O)cc(c1)C[C@H](NC(=O)[C@@H]1[C@@H](C)CCCN1C(C)=O)C(=O)N1CCC[C@H](N1)C(=O)OCC(C)(C)C2 [Compound A324] | – | < 5 | 1 to 10 | – | < 0.01 | – | – | –
CCn1c(-c2cccnc2[C@H](C)OC)c2c3cc(ccc31)-c1csc(n1)C[C@H](NC(=O)[C@H](C(C)C)N(C)C(=O)N1CC(N3CCOCC3)C1)C(=O)N1CCC[C@H](N1)C(=O)OCC(C)(C)C2 [Compound A338] | – | < 5 | 0.01 to 0.1 | – | 0.01 to 0.1 | – | – | –
CCN(CC)C(=O)N(C)[C@H](C(=O)N[C@H]1Cc2nc(cs2)-c2ccc3c(c2)c(c(-c2cccnc2[C@H](C)OC)n3CC)CC(C)(C)COC(=O)[C@@H]2CCCN(N2)C1=O)C(C)C [Compound A351] | 0.01 to 0.1 | < 5 | 0.1 to 1 | – | < 0.01 | – | – | –
CCn1c(-c2cccnc2[C@H](C)OC)c2c3cc(ccc31)-c1csc(n1)C[C@H](NC(=O)C1CC1)C(=O)N1CCC[C@H](N1)C(=O)OCC(C)(C)C2 [Compound A367] | 0.1 to 1 | < 5 | 0.1 to 1 | – | 0.01 to 0.1 | – | – | –
CCn1c(-c2cccnc2[C@H](C)OC)c2c3cc(ccc31)-c1cc(O)cc(c1)C[C@H](NC(=O)[C@H](C(C)C)N(C)C(=O)[C@H]1CCN(C(=O)[C@@H](C)N(C)C)C1)C(=O)N1CCC[C@H](N1)C(=O)OCC(C)(C)C2 [Compound A386] | 0.1 to 1 | < 5 | 0.1 to 1 | – | 0.01 to 0.1 | – | – | –
CCn1c(-c2cc(N3CCN(C)CC3)cnc2[C@H](C)OC)c2c3cc(ccc31)-c1nc(co1)C[C@H](NC(=O)[C@H]1[C@H](C)[C@@H]1C)C(=O)N1CCC[C@H](N1)C(=O)OCC(C)(C)C2 [Compound A391, (1r,2R,3S)—N-((6^3S,4S,Z)-1^1-ethyl-1^2-(2-((S)-1-methoxyethyl)-5-(4-methylpiperazin-1-yl)pyridin-3-yl)-10,10-dimethyl-5,7-dioxo-6^1,6^2,6^3,6^4,6^5,6^6-hexahydro-1^1H-8-oxa-2 (2,4)-oxazola-1 (5,3)-indola-6 (1,3)-pyridazinacycloundecaphane-4-yl)-2,3-dimethylcyclopropane-1-carboxamide] | – | – | – | – | < 0.01 | 0.01 to 0.1 | < 5 | 1 to 10
CCn1c(-c2cccnc2[C@H](C)OC)c2c3cc(ccc31)-c1cc(O)cc(c1)C[C@H](NC(=O)[C@H](C(C)C)N(C)C(=O)[C@@H]1CCCC[C@@H]1N)C(=O)N1CCC[C@H](N1)C(=O)OCC(C)(C)C2 [Compound A395] | 0.1 to 1 | < 5 | 0.1 to 1 | – | 0.1 to 1 | – | – | –
CCn1c(-c2cccnc2[C@H](C)OC)c2c3cc(ccc31)-c1csc(n1)C[C@H](NC(=O)[C@H](C(C)C)N(C)C(=O)N1CCOC[C@@H]1C)C(=O)N1CCC[C@H](N1)C(=O)OCC(C)(C)C2 [Compound A403] | 0.01 to 0.1 | < 5 | 0.01 to 0.1 | – | < 0.01 | – | – | –
CCn1c(-c2cccnc2[C@H](C)OC)c2c3cc(ccc31)-c1cc(O)cc(c1)C[C@H](NC(=O)[C@H](C(C)C)N(C)C(=O)C1CN3CCCN1CC3)C(=O)N1CCC[C@H](N1)C(=O)OCC(C)(C)C2 (some centres unmarked) [Compound A404] | – | < 5 | > 10 | – | 0.1 to 1 | – | – | –
CCn1c(-c2cccnc2[C@H](C)OC)c2c3cc(ccc31)-c1cc(O)cc(c1)C[C@H](NC(=O)[C@H](C(C)C)N(C)C(=O)C13CC(CO1)C3)C(=O)N1CCC[C@H](N1)C(=O)OCC(C)(C)C2 [Compound A406] | 0.01 to 0.1 | < 5 | 0.1 to 1 | – | 0.1 to 1 | – | – | –
CCn1c(-c2cccnc2[C@H](C)OC)c2c3cc(ccc31)-c1cc(O)cc(c1)C[C@H](NC(=O)[C@H](C(C)C)N(C)C(=O)C1CCC3(CCOC3)O1)C(=O)N1CCC[C@H](N1)C(=O)OCC(C)(C)C2 (some centres unmarked) [Compound A409] | 0.1 to 1 | < 5 | 0.1 to 1 | – | 0.1 to 1 | – | – | –
CCn1c(-c2cccnc2[C@H](C)OC)c2c3cc(ccc31)-c1cc(O)cc(c1)C[C@H](NC(=O)[C@H](C(C)C)N(C)C(=O)C13CCC(CO1)C3)C(=O)N1CCC[C@H](N1)C(=O)OCC(C)(C)C2 [Compound A411] | – | < 5 | – | – | < 0.01 | 0.1 to 1 | – | 0.1 to 1
CCn1c(-c2cccnc2[C@H](C)OC)c2c3cc(ccc31)-c1cc(O)cc(c1)C[C@H](NC(=O)[C@H](C(C)C)N(C)C(=O)[C@@H]1[C@H]3CC[C@H](C3)[C@@H]1N)C(=O)N1CCC[C@H](N1)C(=O)OCC(C)(C)C2 [Compound A417] | 0.1 to 1 | < 5 | 1 to 10 | – | 0.01 to 0.1 | – | – | –
CCn1c(-c2cccnc2[C@H](C)OC)c2c3cc(ccc31)-c1csc(n1)C[C@H](NC(=O)[C@H](C(C)C)N(C)C(=O)N1CCO[C@@]3(CCN(C)C3)C1)C(=O)N1CCC[C@H](N1)C(=O)OCC(C)(C)C2 [Compound A436] | 0.01 to 0.1 | < 5 | 0.01 to 0.1 | – | 0.01 to 0.1 | – | – | –
CCn1c(-c2cc(N3CCN(C)CC3)cnc2[C@H](C)OC)c2c3cc(ccc31)-c1csc(n1)C[C@H](NC(=O)[C@H](C(C)C)N(C)C(=O)[C@@H]1CCCS1(=O)=O)C(=O)N1CCC[C@H](N1)C(=O)OCC(C)(C)C2 [Compound A440] | 0.01 to 0.1 | < 5 | 0.01 to 0.1 | – | 0.01 to 0.1 | – | – | –
CCn1c(-c2cccnc2[C@H](C)OC)c2c3cc(ccc31)-c1csc(n1)C[C@H](NC(=O)[C@H](C(C)C)N(C)C(=O)N1C[C@@H]3OCCN(C)[C@@H]3C1)C(=O)N1CCC[C@H](N1)C(=O)OCC(C)(C)C2 [Compound A444] | 0.01 to 0.1 | < 5 | 0.01 to 0.1 | – | 0.01 to 0.1 | – | – | –
CCn1c(-c2cccnc2[C@H](C)OC)c2c3cc(ccc31)-c1csc(n1)C[C@H](NC(=O)[C@H](C(C)C)N(C)C(=O)N1CC[C@H]1CN)C(=O)N1CCC[C@H](N1)C(=O)OCC(C)(C)C2 [Compound A463] | – | < 5 | 1 to 10 | – | 0.01 to 0.1 | – | – | –
CCn1c(-c2cccnc2[C@H](C)OC)c2c3cc(ccc31)-c1csc(n1)C[C@H](NC(=O)[C@H](C(C)C)N(C)C(=O)N1CC[C@]3(CCNC3=O)C1)C(=O)N1CCC[C@H](N1)C(=O)OCC(C)(C)C2 [Compound A479] | – | < 5 | 1 to 10 | – | < 0.01 | – | – | –
CCn1c(-c2cccnc2[C@H](C)OC)c2c3cc(ccc31)-c1csc(n1)C[C@H](NC(=O)[C@H](C(C)C)N(C)C(=O)N1CCC13CCS(=O)(=O)CC3)C(=O)N1CCC[C@H](N1)C(=O)OCC(C)(C)C2 [Compound A530] | – | < 5 | 0.1 to 1 | – | 0.1 to 1 | – | – | –
CCn1c(-c2cccnc2[C@H](C)OC)c2c3cc(ccc31)-c1csc(n1)C[C@H](NC(=O)[C@H](C(C)C)N(C)C(=O)N1CC[C@@H]1CN)C(=O)N1CCC[C@H](N1)C(=O)OCC(C)(C)C2 [Compound A558] | – | < 5 | 0.1 to 1 | – | 0.01 to 0.1 | – | – | –
